Measurements from US5736384A (priority 1994, dated 1998).
“Also recorded” adds a separate entry of the source. Like-named read-outs stand apart in the source and are kept apart here.

Tests used:
XP1 [1] = assay: Effects of metal salts on enzyme activity of XP1; type: biochemical, Bacillus sp. 2113; settings: metal salt 1 mM, 4° C. overnight, also 1 mM in reaction mixture; None = 100
Procedure: (§1) Various metal salts were added to each of the enzyme solutions to a concentration of 1 mM and retained at 4° C. overnight. Then, a metal salt of the same kind was also added to a reaction mixture to a concentration of 1 mM, and the enzyme activities of XP1 and XP2 were determined.

XP2 [2] = assay: Effects of metal salts on enzyme activity of XP2; type: biochemical, Bacillus sp. 2113; settings: for Relative Activity(%) XP2: metal salt 1 mM, 4° C. overnight, also 1 mM in reaction mixture, None = 100; for inhibition of XP2 by metal ion (in words): 1 mM
Procedure: as §1

XP1 [3] = assay: biochemical; type: biochemical, Bacillus sp. 2113; settings: inhibitor 1 mM, 4° C. overnight, also 1 mM in reaction mixture, None = 100; for activity at 1000 µM: read-out: Relative Activity(%) XP1
Procedure: (§2) Various inhibitors and the like were added to each of the enzyme solutions to a concentration of 1 mM and retained at 4° C. overnight. Then, the same substance was also added to a reaction mixture to a concentration of 1 mM, and the enzyme activities of XP1 and XP2 were determined.

XP2 [4] = type: biochemical, Bacillus sp. 2113
Procedure: as §2

XP1 [5] = target: T1, XP1 (Paenibacillus sp. DG-22, UniProt A4GG22); assay: Effects of metal salts on enzyme activity of XP1; type: biochemical, Bacillus sp. 2113; settings: 1 mM
T1 sequence (A4GG22 29-211): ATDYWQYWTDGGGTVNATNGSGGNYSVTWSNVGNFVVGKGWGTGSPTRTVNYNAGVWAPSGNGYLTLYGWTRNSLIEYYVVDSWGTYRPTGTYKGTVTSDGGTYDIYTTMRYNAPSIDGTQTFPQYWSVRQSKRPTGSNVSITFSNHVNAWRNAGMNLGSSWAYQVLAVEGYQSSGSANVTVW
Procedure: as §1

XP1 [6] = target: T1, XP1; assay: biochemical; type: biochemical, Bacillus sp. 2113; settings: for activity at 1000 µM: read-out: Relative Activity(%) XP1
T1 sequence (A4GG22 29-211): as above
Procedure: as §2

[7] = Enzyme activity at different temperatures (optimum / appropriate temperature); type: biochemical
Procedure: (§3) Fifty microliters of a sample solution is added to 200 μl of 1% birch xylan (Sigma) solution (pH 6.5, in 1/10 McIlvaine buffer), and reacted at 70° C. for 5 minutes. Five hundreds microliters of DNS reagent is added thereto and boiled for 5 minutes. Then, the reaction mixture is immediately ice-cooled and 4 ml distilled water is added thereto. Thereafter, absorbance at 500 nm is measured. Calibration curves are prepared by using a xylose solution of known concentration.
(§4) As to the unit of xylanase activity, one unit (U) was defined as the amount of enzyme which releases […] of reducing sugar per minute under the above conditions.
The enzyme activity of each enzyme was determined at different temperatures.

[8] = Determination of xylanase activity (DNS reducing sugar method); type: biochemical; settings: purified enzyme
Procedure: as §3, §4
Fifty microliters of the crude enzyme solution was added to 200 μl of 1% birch xylan (Sigma) solution (in 1/10 McIlvaine buffer, pH 6. 5), and reacted at 70° C. for 5 minutes.
After addition of DNS reagent (500 μl) and subsequent boiling for 5 minutes, the reaction mixture was immediately ice-cooled and 4 ml of distilled water was added thereto. Then, absorbance at 500 nm was measured. Calibration curves were prepared by using a xylose solution of known concentration.
As to the unit of xylanase activity, one unit (U) was defined as the amount of enzyme which releases 1 μmol of reducing sugar per minute under the above conditions. […]

[9] = Thermostability (residual activity after 30 min at a certain temperature); type: physicochemical; settings: 50 mM Tris-HCl buffer (pH 7.2)
Procedure: In addition, after each enzyme was left in 50 mM Tris-HCl buffer (pH 7.2) for 30 minutes at a certain temperature, the enzyme activity was determined.

[10] = Action: thin-layer chromatography of reaction products from birch xylan; type: biochemical; settings: 1% birch xylan, pH 7.0, 60° C., 10 U enzyme, TLC
Procedure: To 5 ml of 1% birch xylan (Sigma) solution (pH 7.0, in 40 mM sodium phosphate buffer), 10 U of each of XP1 and XP2 was added and reacted at 60° C. After a certain reaction period, the reaction was terminated by boiling and 10 μl of the reaction mixture was subjected to thin-layer chromatography using HPTLC Kieselgel 60 F254 (Merk) as a thin layer and a mixture of n-butanol, acetic acid and water (10:5:1) as a developer. The coloring was carried out by spraying a diphenylamine-aniline reagent and heating at 120° C. for 10 minutes.
The number of minutes shown in this FIG. represents the reaction time of the enzyme.

[11] = Optimum pH for reaction (enzyme activity measured at each pH); type: biochemical
Procedure: (§5) For each of the enzymes, the optimum pH and pH stability were determined by using glycine-HCl buffer (pH 3 or below), acetate buffer (pH 4-5), sodium phosphate buffer (pH 6-7), Tris-HCl buffer (pH 8-9) and glycine-NaOH buffer (pH 9.1-10.1). The enzyme activity of each xylanase was measured at each of the pH values.
as §3, §4

Substrate specificity = type: biochemical
[12] = pH stability (enzyme activity after two nights in buffer); type: physicochemical; settings: retained in 50 mM buffer for two nights
Procedure: as §5
In addition, each of the enzymes was retained in a certain 50 mM buffer for two nights and then the enzyme activity was determined.

[13] = inhibitor 1 mM, 4° C. overnight, also 1 mM in reaction mixture, None = 100

[Ba+2].[Cl-].[Cl-] [BaCl2]
Relative Activity(%) XP1 (XP1 [1]): 137% | Relative Activity(%) XP2 (XP2 [2]): 108%

[Cl][Al]([Cl])[Cl] [AlCl3]
Relative Activity(%) XP1 (XP1 [1]): 110% | Relative Activity(%) XP2 (XP2 [2]): 100%

[Cl][Mn][Cl] [MnCl2]
Relative Activity(%) XP1 (XP1 [1]): 99% | inhibition of XP2 by metal ion (in words) (XP2 [2]): weakly inhibited | Relative Activity(%) XP2 (XP2 [2]): 74%

[N-]=[N+]=[N-].[Na+] [NaN3]
Relative Activity(%) XP1 (XP1 [3]): 96% | Relative Activity(%) XP2 (XP2 [4]; [13]): 109%

[Cl][Hg][Cl] [HgCl2]
Relative Activity(%) XP1 (XP1 [1]): 24% | inhibition of XP1 by metal ion (in words) (XP1 [5]): strongly inhibited | inhibition of XP2 by metal ion (in words) (XP2 [2]): strongly inhibited | Relative Activity(%) XP2 (XP2 [2]): 0%

[Cl-].[Rb+] [RbCl]
Relative Activity(%) XP1 (XP1 [1]): 121% | Relative Activity(%) XP2 (XP2 [2]): 98%

[Cl][Cu][Cl] [CuCl2]
Relative Activity(%) XP1 (XP1 [1]): 87% | inhibition of XP2 by metal ion (in words) (XP2 [2]): weakly inhibited | Relative Activity(%) XP2 (XP2 [2]): 68%

[Cl][Ni][Cl] [NiCl2]
Relative Activity(%) XP1 (XP1 [1]): 129% | Relative Activity(%) XP2 (XP2 [2]): 93%

CCCCCCCCCCCCOS(=O)(=O)O [SDS]
activity at 1000 µM (XP1 [3]): 0% | inhibition of XP1 by inhibitor (in words) (XP1 [6]; 1 mM): strongly inhibited | inhibition of XP2 by inhibitor (in words) (XP2 [4]; 1 mM): strongly inhibited | Relative Activity(%) XP2 (XP2 [4]; [13]): 0%

O[C@H](CS)[C@H](O)CS (racemic) [Dithiothreitol]
activity at 1000 µM (XP1 [3]): 85% | Relative Activity(%) XP2 (XP2 [4]; [13]): 82%

[Ca+2].[Cl-].[Cl-] [CaCl2]
Relative Activity(%) XP1 (XP1 [1]): 106% | Relative Activity(%) XP2 (XP2 [2]): 98%

O=S(=O)([O-])[O-].[Fe+2] [FeSO4]
Relative Activity(%) XP1 (XP1 [1]): 165% | Relative Activity(%) XP2 (XP2 [2]): 99%

O=C(O)CN(CCN(CC(=O)O)CC(=O)O)CC(=O)O [EDTA]
inhibition of XP1 by inhibitor (in words) (XP1 [6]): weakly inhibited | activity at 1000 µM (XP1 [6]): 59% | Relative Activity(%) XP2 (XP2 [4]): 65% | inhibition of XP2 by inhibitor (in words) (XP2 [4]): weakly inhibited

[Cl-].[Li+] [LiCl]
Relative Activity(%) XP1 (XP1 [1]): 128% | Relative Activity(%) XP2 (XP2 [2]): 99%

[Cl-].[Cl-].[Co+2] [CoCl2]
Relative Activity(%) XP1 (XP1 [1]): 107% | inhibition of XP2 by metal ion (in words) (XP2 [2]): weakly inhibited | Relative Activity(%) XP2 (XP2 [2]): 70%

XP1: thermostable xylanase from Bacillus sp. 2113 culture, active fraction eluted earlier; amino acid sequence SEQ ID NO: 1
optimum temperature for reaction [7]: 70 °C | specific activity [8]: 1420 U/mg | residual enzyme activity after 30 min treatment at 50° C. ([9]; 50° C.): ≥ 90% | residual enzyme activity after 30 min treatment at 60° C. ([9]; 60° C.): ≥ 50% | products formed upon acting on xylan [10]: xyloligosaccharides | optimum pH for reaction [11]: 5-8 | substrate specificity (Substrate specificity): act on prepared xylans such as birch xylan and oat spelt xylan, as well as xylan-containing materials such as hardwood kraft pulp and oat spelt bran; also recorded: acting on prepared xylans including birch xylan and oat spelt xylan, as well as xylan-containing materials including hardwood kraft pulp and oat spelt bran | pH at which the xylanase is stable [12]: 3.0-9.0

O=C(O)CI [Iodoacetic acid]
inhibition of XP1 by inhibitor (in words) (XP1 [6]): weakly inhibited | activity at 1000 µM (XP1 [6]): 75% | Relative Activity(%) XP2 (XP2 [4]): 76% | inhibition of XP2 by inhibitor (in words) (XP2 [4]): weakly inhibited

[Cl-].[Cl-].[Mg+2] [MgCl2]
Relative Activity(%) XP1 (XP1 [1]): 129% | Relative Activity(%) XP2 (XP2 [2]): 103%
